In ChEMBL document CHEMBL4229350, “Antimicrobial activity and self-assembly behavior of antimicrobial peptide chensinin-1b with lipophilic alkyl tails” (Eur J Med Chem, 2018):
The source made the active and inactive calls. The rule behind the calls is not given here. Bridge positions count the residues as written; N and C are the ends. Square brackets hold non-standard residues; d marks the D form. Peptide text beside a SMILES is read from it. * marks the point of attachment. X1 = CC[C@H](C)CCCCC(=O)*; Dab = NCC[C@H](N)C(=O)O

Assays:
U-937 [1] = test: Antiinflammatory activity in human U937 cells assessed as inhibition of LPS-induced TNF-alpha production up to 40 microg/ml after 24 hrs by ELISA relative to control; type: functional
U-937 [2] = test: Antiinflammatory activity in human U937 cells assessed as inhibition of LPS-induced IL-6 production up to 40 microg/ml after 24 hrs by ELISA relative to control; type: functional
Lipid bilayer [3] = test: Induction of membrane permeabilization in calcein loaded LPS/PC/PG large unilamellar vesicles assessed as calcein leakage after 15 mins by fluorescence assay
Escherichia coli [4] = test: Antimicrobial activity against Escherichia coli AS 1.349 assessed as induction of outer membrane permeabilization by measuring NPN uptake by fluorescence assay; type: functional, organism-based
Staphylococcus aureus [5] = test: Antimicrobial activity against Staphylococcus aureus AS 1.72 assessed as induction of outer membrane permeabilization by measuring NPN uptake by fluorescence assay; type: functional, organism-based
Staphylococcus aureus [6] = test: Antimicrobial activity against Staphylococcus aureus AS 1.72 assessed as induction of bacterial cytoplasmic membrane depolarization at 2 times MIC after 6 mins by diSC3-5 dye-based fluorescence assay; type: functional, organism-based
[7] = Hemolytic activity against human erythrocytes after 1 hr; type: ADME, cell-based, Erythrocyte
MCF7 = test: Cytotoxicity against human MCF7 cells assessed as reduction in cell viability after 1 hr by MTT assay; type: functional, cell-based; settings: MCF7, 1 h
A-375 = test: Cytotoxicity against human A375 cells assessed as reduction in cell viability after 1 hr by MTT assay; type: functional, cell-based; settings: A-375, 1 h
HeLa = test: Cytotoxicity against human HeLa cells assessed as reduction in cell viability after 1 hr by MTT assay; type: functional, cell-based
Enterococcus faecalis = test: Antimicrobial activity against Enterococcus faecalis CGMCC 1.595 after 18 hrs by micro dilution method; type: functional; settings: CGMCC 1.595, 18 h
Enterococcus faecium = test: Antimicrobial activity against Enterococcus faecium CGMCC 1.2334 after 18 hrs by micro dilution method; type: functional; settings: CGMCC 1.2334, 18 h
Lactococcus lactis = test: Antimicrobial activity against Streptococcus lactis AS 1.1690 after 18 hrs by micro dilution method; type: functional; settings: AS 1.1690, 18 h
Bacillus cereus = test: Antimicrobial activity against Bacillus cereus AS 1.126 after 18 hrs by micro dilution method; type: functional; settings: AS 1.126, 18 h
Staphylococcus aureus [8] = test: Antimicrobial activity against Staphylococcus aureus AS 1.72 after 18 hrs by micro dilution method; type: functional; settings: AS 1.72, 18 h
Pseudomonas aeruginosa = test: Antimicrobial activity against Pseudomonas aeruginosa CGMCC 1.860 after 18 hrs by micro dilution method; type: functional; settings: CGMCC 1.860, 18 h
Escherichia coli [9] = test: Antimicrobial activity against Escherichia coli AS 1.349 after 18 hrs by micro dilution method; type: functional; settings: AS 1.349, 18 h
Lipid bilayer [10] = test: Induction of membrane permeabilization in calcein loaded LPS/PC/PG large unilamellar vesicles assessed as calcein leakage at 50 uM after 15 mins by fluorescence assay relative to control
Lipid bilayer [11] = test: Induction of membrane permeabilization in calcein loaded PC/cholesterol large unilamellar vesicles assessed as calcein leakage at 50 uM after 10 mins by fluorescence assay relative to control
[12] = Self-assembly property assessed as diameter of monodispersed micelles at 1 mg/ml at pH 7 by DLS method; type: physicochemical
[13] = Self-assembly property assessed as diameter of monodispersed micelles at 1 mg/ml at pH 2 by DLS method; type: physicochemical
[14] = Self-assembly property assessed as diameter of monodispersed micelles at 1 mg/ml at pH 7 by TEM analysis; type: physicochemical

CC[C@H](C)CCCCC(=O)N[C@@H](CCN)C(=O)N[C@H](C(=O)N[C@@H](CCN)C(=O)N[C@H]1CCNC(=O)[C@H]([C@@H](C)O)NC(=O)[C@H](CCN)NC(=O)[C@H](CCN)NC(=O)[C@H](CC(C)C)NC(=O)[C@@H](Cc2ccccc2)NC(=O)[C@H](CCN)NC1=O)[C@@H](C)O (X1-[Dab]T[Dab][Dab][Dab][dF]L[Dab][Dab]T; lactam 4-C)
inhibition (INH) (U-937 [1]): 28%
inhibition (INH) (U-937 [2]): 44%

H-SKVWRHWRRFWHRAHRKL-OH
Activity (Lipid bilayer [3]): Dose-dependent effect
Activity (Escherichia coli [4]): Dose-dependent effect
Activity (Staphylococcus aureus [5]): Dose-dependent effect
Activity (Staphylococcus aureus [6]): Active
HC50 at 1 h [7]: > 500 µM
IC50 (MCF7): 51.9 µM
IC50 (A-375): > 125 µM
IC50 (HeLa): 113 µM
MIC (Enterococcus faecalis): 3.13 µM
MIC (Enterococcus faecium): 1.56 µM
MIC (Lactococcus lactis): 3.13 µM
MIC (Bacillus cereus): 3.13 µM
MIC (Staphylococcus aureus [8]): 3.13 µM
MIC (Pseudomonas aeruginosa): 1.56 µM
MIC (Escherichia coli [9]): 6.25 µM
Activity (Lipid bilayer [10]): 62%
Activity (Lipid bilayer [11]): 20%
Activity [12]: 60 nm
Activity [13]: 3990 nm
Activity [14]: 141 nm
